We go through nine compounds from ChEMBL document CHEMBL1150305, “Synthesis and in vitro PDT activity of miscellaneous porphyrins with amino acid and uracil” (2008).

This test in a line: Photocytotoxicity against human Ec9706 cells after 2.5 hrs irradiation measured after 24 hrs incubation in dark by MTT assay. The test is classed as functional. (Tetrazolium dyes change colour on reduction, which living cells bring about.)
In the case of `N[C@@H](Cc1ccccc1)C(=O)Nc1ccc(-c2c3nc(c(-c4ccc(NC(=O)[C@@H](N)Cc5ccccc5)cc4)c4ccc([nH]4)c(-c4ccccc4)c4nc(c(-c5ccccc5)c5ccc2[nH]5)C=C4)C=C3)cc1`, the “inhibition (INH)” value is 96.13%.

On to `O=C(Cn1cc(F)c(=O)[nH]c1=O)Nc1ccc(-c2c3nc(c(-c4ccc(NC(=O)Cn5cc(F)c(=O)[nH]c5=O)cc4)c4ccc([nH]4)c(-c4ccccc4)c4nc(c(-c5ccccc5)c5ccc2[nH]5)C=C4)C=C3)cc1`, for which the “inhibition (INH)” value worked out at 100%.

Consider `CC(C)(C)OC(=O)N[C@@H](Cc1ccccc1)C(=O)Nc1ccc(-c2c3nc(c(-c4ccc(NC(=O)[C@H](Cc5ccccc5)NC(=O)OC(C)(C)C)cc4)c4ccc([nH]4)c(-c4ccccc4)c4nc(c(-c5ccccc5)c5ccc2[nH]5)C=C4)C=C3)cc1`, for which the “inhibition (INH)” value came out at 100%.

As for `Nc1ccc(-c2c3nc(c(-c4ccc(N)cc4)c4ccc([nH]4)c(-c4ccccc4)c4nc(c(-c5ccccc5)c5ccc2[nH]5)C=C4)C=C3)cc1`, the “inhibition (INH)” value was determined as 66.6%.

Consider `Nc1ccc(-c2c3nc(c(-c4ccc(NC(=O)[C@@H](N)Cc5ccccc5)cc4)c4ccc([nH]4)c(-c4ccccc4)c4nc(c(-c5ccccc5)c5ccc2[nH]5)C=C4)C=C3)cc1`, for which the “inhibition (INH)” value is recorded as 37.94%.

With `N[C@@H](Cc1ccccc1)C(=O)Nc1ccc(-c2c3nc(c(-c4ccc(NC(=O)Cn5cc(F)c(=O)[nH]c5=O)cc4)c4ccc([nH]4)c(-c4ccccc4)c4nc(c(-c5ccccc5)c5ccc2[nH]5)C=C4)C=C3)cc1`, the “inhibition (INH)” value is 69.45%.

For `Nc1ccc(-c2c3nc(c(-c4ccc(NC(=O)Cn5cc(F)c(=O)[nH]c5=O)cc4)c4ccc([nH]4)c(-c4ccccc4)c4nc(c(-c5ccccc5)c5ccc2[nH]5)C=C4)C=C3)cc1`, the “inhibition (INH)” value turned out to be 97.09%.

With `CC(C)(C)OC(=O)N[C@@H](Cc1ccccc1)C(=O)Nc1ccc(-c2c3nc(c(-c4ccc(NC(=O)Cn5cc(F)c(=O)[nH]c5=O)cc4)c4ccc([nH]4)c(-c4ccccc4)c4nc(c(-c5ccccc5)c5ccc2[nH]5)C=C4)C=C3)cc1`, the “inhibition (INH)” value was determined as 88.65%.

For the compound `CC(C)(C)OC(=O)N[C@@H](Cc1ccccc1)C(=O)Nc1ccc(-c2c3nc(c(-c4ccc(N)cc4)c4ccc([nH]4)c(-c4ccccc4)c4nc(c(-c5ccccc5)c5ccc2[nH]5)C=C4)C=C3)cc1`, the “inhibition (INH)” value was found to be 47.21%.
